{"source": "PubChem BioAssay (NCI)", "test_in_all_cases": "DTP human tumour cell line panel, 384-well format", "key": {"T-47D breast": {"system": "T-47D breast"}, "MOLT-4 leukemia": {"system": "MOLT-4 leukemia"}, "NCI-H226 lung": {"system": "NCI-H226 lung"}, "SR leukemia": {"system": "SR leukemia"}, "CAKI-1 renal": {"system": "CAKI-1 renal"}, "HCC-2998 colon": {"system": "HCC-2998 colon"}, "UO-31 renal": {"system": "UO-31 renal"}, "M14 melanoma": {"system": "M14 melanoma"}, "OVCAR-8 ovarian": {"system": "OVCAR-8 ovarian"}, "SK-MEL-5 melanoma": {"system": "SK-MEL-5 melanoma"}, "SN12C renal": {"system": "SN12C renal"}, "UACC-257 melanoma": {"system": "UACC-257 melanoma"}, "OVCAR-4 ovarian": {"system": "OVCAR-4 ovarian"}, "TK-10 renal": {"system": "TK-10 renal"}, "A549 NSCLC": {"system": "A549 NSCLC"}, "MCF7 breast": {"system": "MCF7 breast"}, "IGROV1 ovarian": {"system": "IGROV1 ovarian"}, "RXF 393 renal": {"system": "RXF 393 renal"}, "MDA-MB-231 breast": {"system": "MDA-MB-231 breast"}, "A498 renal": {"system": "A498 renal"}, "HT29 colon": {"system": "HT29 colon"}, "HS 578T breast": {"system": "HS 578T breast"}, "SF-539 CNS": {"system": "SF-539 CNS"}, "HL-60(TB) leukemia": {"system": "HL-60(TB) leukemia"}, "SF-295 CNS": {"system": "SF-295 CNS"}, "ACHN renal": {"system": "ACHN renal"}, "BT-549 breast": {"system": "BT-549 breast"}, "SK-OV-3 ovarian": {"system": "SK-OV-3 ovarian"}, "NCI-H322M lung": {"system": "NCI-H322M lung"}}, "note": "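Abbreviation: GI50, concentration required for 50% inhibition of growth. TGI is the concentration that stops growth completely.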", "data": [{"smiles": "Cn1cc(-c2cnc3ccc4ccc(CS(=O)(=O)NCc5ccccn5)cc4c(=O)c3c2)cn1", "values": [{"measurement": "GI50", "setting": "T-47D breast", "result": 15.5, "unit": "µM"}, {"measurement": "TGI", "setting": "T-47D breast", "result": 30.5, "unit": "µM"}, {"measurement": "GI50", "setting": "MOLT-4 leukemia", "result": 3.23, "unit": "µM"}, {"measurement": "TGI", "setting": "MOLT-4 leukemia", "result": 10.6, "unit": "µM"}, {"measurement": "GI50", "setting": "NCI-H226 lung", "result": 13.7, "unit": "µM"}, {"measurement": "TGI", "setting": "NCI-H226 lung", "result": 30.5, "unit": "µM"}, {"measurement": "GI50", "setting": "SR leukemia", "result": 1.91, "unit": "µM"}, {"measurement": "TGI", "setting": "SR leukemia", "result": 4.24, "unit": "µM"}, {"measurement": "GI50", "setting": "CAKI-1 renal", "result": 32.7, "unit": "µM"}, {"measurement": "TGI", "setting": "CAKI-1 renal", "result": "> 100", "unit": "µM"}, {"measurement": "GI50", "setting": "HCC-2998 colon", "result": 15, "unit": "µM"}, {"measurement": "TGI", "setting": "HCC-2998 colon", "result": 28.7, "unit": "µM"}, {"measurement": "GI50", "setting": "UO-31 renal", "result": 35.9, "unit": "µM"}, {"measurement": "TGI", "setting": "UO-31 renal", "result": "> 100", "unit": "µM"}, {"measurement": "GI50", "setting": "M14 melanoma", "result": 12.9, "unit": "µM"}, {"measurement": "TGI", "setting": "M14 melanoma", "result": 26.1, "unit": "µM"}, {"measurement": "GI50", "setting": "OVCAR-8 ovarian", "result": 16.2, "unit": "µM"}, {"measurement": "TGI", "setting": "OVCAR-8 ovarian", "result": 36.5, "unit": "µM"}, {"measurement": "GI50", "setting": "SK-MEL-5 melanoma", "result": 8.26, "unit": "µM"}, {"measurement": "TGI", "setting": "SK-MEL-5 melanoma", "result": 20.8, "unit": "µM"}, {"measurement": "GI50", "setting": "SN12C renal", "result": 19.9, "unit": "µM"}, {"measurement": "TGI", "setting": "SN12C renal", "result": 46.4, "unit": "µM"}, {"measurement": "GI50", "setting": "UACC-257 melanoma", "result": 18.3, "unit": "µM"}, {"measurement": "TGI", "setting": "UACC-257 melanoma", "result": 32.3, "unit": "µM"}, {"measurement": "GI50", "setting": "OVCAR-4 ovarian", "result": 14.9, "unit": "µM"}, {"measurement": "TGI", "setting": "OVCAR-4 ovarian", "result": 29.6, "unit": "µM"}, {"measurement": "GI50", "setting": "TK-10 renal", "result": 20.8, "unit": "µM"}, {"measurement": "TGI", "setting": "TK-10 renal", "result": 51.5, "unit": "µM"}, {"measurement": "GI50", "setting": "A549 NSCLC", "result": 40.4, "unit": "µM"}, {"measurement": "TGI", "setting": "A549 NSCLC", "result": "> 100", "unit": "µM"}, {"measurement": "GI50", "setting": "MCF7 breast", "result": 10, "unit": "µM"}, {"measurement": "TGI", "setting": "MCF7 breast", "result": 26.9, "unit": "µM"}, {"measurement": "GI50", "setting": "IGROV1 ovarian", "result": 16.7, "unit": "µM"}, {"measurement": "TGI", "setting": "IGROV1 ovarian", "result": 33, "unit": "µM"}, {"measurement": "GI50", "setting": "RXF 393 renal", "result": 13.5, "unit": "µM"}, {"measurement": "TGI", "setting": "RXF 393 renal", "result": 26.8, "unit": "µM"}, {"measurement": "GI50", "setting": "MDA-MB-231 breast", "result": 15.2, "unit": "µM"}, {"measurement": "TGI", "setting": "MDA-MB-231 breast", "result": 30.4, "unit": "µM"}, {"measurement": "GI50", "setting": "A498 renal", "result": 23.1, "unit": "µM"}, {"measurement": "TGI", "setting": "A498 renal", "result": "> 100", "unit": "µM"}, {"measurement": "GI50", "setting": "HT29 colon", "result": 15.4, "unit": "µM"}, {"measurement": "TGI", "setting": "HT29 colon", "result": 32.7, "unit": "µM"}, {"measurement": "GI50", "setting": "HS 578T breast", "result": 14.4, "unit": "µM"}, {"measurement": "TGI", "setting": "HS 578T breast", "result": 33.3, "unit": "µM"}, {"measurement": "GI50", "setting": "SF-539 CNS", "result": 15.3, "unit": "µM"}, {"measurement": "TGI", "setting": "SF-539 CNS", "result": 28.9, "unit": "µM"}, {"measurement": "GI50", "setting": "HL-60(TB) leukemia", "result": 13.2, "unit": "µM"}, {"measurement": "TGI", "setting": "HL-60(TB) leukemia", "result": 26, "unit": "µM"}, {"measurement": "GI50", "setting": "SF-295 CNS", "result": 13.3, "unit": "µM"}, {"measurement": "TGI", "setting": "SF-295 CNS", "result": 33.8, "unit": "µM"}, {"measurement": "GI50", "setting": "ACHN renal", "result": 24.7, "unit": "µM"}, {"measurement": "TGI", "setting": "ACHN renal", "result": 98.4, "unit": "µM"}, {"measurement": "GI50", "setting": "BT-549 breast", "result": 14.9, "unit": "µM"}, {"measurement": "TGI", "setting": "BT-549 breast", "result": 30.8, "unit": "µM"}, {"measurement": "GI50", "setting": "SK-OV-3 ovarian", "result": 13.4, "unit": "µM"}, {"measurement": "TGI", "setting": "SK-OV-3 ovarian", "result": 31.3, "unit": "µM"}, {"measurement": "GI50", "setting": "NCI-H322M lung", "result": 21.3, "unit": "µM"}, {"measurement": "TGI", "setting": "NCI-H322M lung", "result": 64.6, "unit": "µM"}]}]}
